Results on 3 compounds are retold here after US8470813B2, “Thiazoline and oxazoline derivatives and their methods of use” (AbbVie Inc., priority 2006, dated 2013).

Assay [1] addresses T1, α7 nAChRs (Homo sapiens, UniProt P36544).
T1 construct: IMR-32 cells endogenous expressing α7 nAChRs; host or cells: IMR-32 neuroblastoma cells
The assay is described as follows: High-throughput calcium flux (FLIPR) assay using IMR-32 cells expressing endogenous α7 nAChRs. Format: cell-based. For orientation: Calcium flux is commonly read through the fluorescence of an indicator in the cells.
Text: (i) High-Throughput Calcium Flux Assays Using Cells Expressing Endogenous α7 nAChRs
As such, positive allosteric modulators can be identified or nicotinic acetylcholine receptor agonists can be identified by using IMR-32 cells that endogenously express various nicotinic receptors including α7 nAChRs. […] Accordingly, allosteric modulator compounds described herein can be identified using fluorescence-based throughput functional assay using cell lines such as IMR-32 neuroblastoma or primary dissociated neurons. Although cell types such as IMR-32 neuroblastoma and neurons are known to contain several nicotinic receptor subunits, α7 selective agonists in the present assay selectively stimulate calcium responses only in the presence of positive allosteric modulators. Any suitable selective α7 agonist can be used.
IMR-32 neuroblastoma cells (ATCC) were grown to confluency in 162 cm^2 tissue culture flasks in minimum essential media supplemented with 10% FBS and 1 mM sodium pyruvate, 0.1 mM non-essential amino acids and 1% antibiotic-antimycotic. The cells were then dissociated using cell dissociation buffer and 40 μl of 3.5×10^5 cells/ml cell suspension was plated (15,000 cells/well) into black plates with clear bottom and maintained for 48 hours in a tissue culture incubator at 37° C. under an atmosphere of 5% CO2: 95% air. […] Calcium flux was measured using calcium-3 assay kit (Molecular Devices, Sunnyvale, Calif.) or fluo-4. A stock solution of the dye was prepared by dissolving each vial supplied by the vendor in Hank's balanced salt solution buffer (HBSS) containing 20 mM HEPES. The stock solution was diluted 1:20 using the same buffer before use. The growth media was removed from the cells and loaded with 45 μl of the dye and incubated at room temperature for three hours. Fluorescence measurements were read simultaneously from all the wells by a Fluorometic Imaging Plate Reader (FLIPR) at an excitation wavelength of 480 nm and an emission wavelength of 520 nm. Baseline fluorescence was measured for the first 10 seconds at which 5× concentrations of modulator/test compounds were added to the cell plate and incubated for three minutes. The fluorescence intensity was captured every second for the first 1 minute followed by every 5 seconds for an additional 2 minutes. This procedure was followed by 20 μl of 4× concentration of agonist and readings were taken for a period of three minutes as described above.

Assay [2] has as its target T2, α7 nAChRs (Rattus norvegicus, UniProt Q05941).
T2 construct: cells expressing endogenous α7 nAChRs without the need for overexpressing recombinant receptors; host or cells: PC-12 rat pheochromocytoma cells
The assay is described as follows: High-throughput phospho-ERK assay (in-cell western) using PC-12 cells expressing endogenous α7 nAChRs. The class given is cell-based. As to conditions: in presence of selective α7 agonist, FIG. 4. The protocol:
To determine the effectiveness of compounds of formula (I) or (II), as allosteric modulators, the compounds of the invention were evaluated according to two high-throughput functional assays using (i) IMR-32 cells endogenous expressing α7 nAChRs and measuring Ca^2+ flux or membrane potential changes utilizing the fluorescence-imaging plate reader (FLIPR)-based assays and (ii) measurement of phospho-ERK activity using western blot assays. These assays allow for higher throughput screening of positive allosteric modulators using cells or cell lines expressing endogenous α7 nAChRs.
(ii) High-Throughput Phospho-Erk Assays Using Cells Expressing Endogenous α7 nAChRs
Rat pheochromocytoma (PC-12) cells (ATCC, Manassas, Va.) were cultured and maintained in F-12K media supplemented with 15% horse serum, 2.5% fetal calf serum, and 2 mM L-Glutamine in poly-D lysine coated dishes at 37° C. and 5% CO2. […]
PC-12 cells are treated for 10 minutes at 37° C. with test positive allosteric modulator compounds and then challenged with a selective α7 agonist for 5 minutes at 37° C. in a final volume of 100 μl/well, unless otherwise indicated. […] Well intensities were quantitated and phospho-ERK signals were normalized to total ERK signals by the Odyssey software. […]

T1 sequence (P36544 23-502): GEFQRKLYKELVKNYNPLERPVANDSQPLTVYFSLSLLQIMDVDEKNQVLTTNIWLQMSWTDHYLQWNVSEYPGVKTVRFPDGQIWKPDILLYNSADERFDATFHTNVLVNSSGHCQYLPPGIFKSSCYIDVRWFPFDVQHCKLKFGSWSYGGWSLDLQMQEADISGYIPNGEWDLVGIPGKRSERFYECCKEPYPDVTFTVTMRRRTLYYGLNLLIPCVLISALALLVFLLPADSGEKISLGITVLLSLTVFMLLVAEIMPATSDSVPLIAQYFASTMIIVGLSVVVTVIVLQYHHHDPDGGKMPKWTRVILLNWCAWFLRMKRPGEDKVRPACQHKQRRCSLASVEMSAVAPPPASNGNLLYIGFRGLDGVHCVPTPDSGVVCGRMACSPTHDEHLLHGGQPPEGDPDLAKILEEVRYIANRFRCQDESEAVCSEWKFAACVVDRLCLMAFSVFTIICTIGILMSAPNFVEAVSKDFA
T2 sequence (Q05941 23-502): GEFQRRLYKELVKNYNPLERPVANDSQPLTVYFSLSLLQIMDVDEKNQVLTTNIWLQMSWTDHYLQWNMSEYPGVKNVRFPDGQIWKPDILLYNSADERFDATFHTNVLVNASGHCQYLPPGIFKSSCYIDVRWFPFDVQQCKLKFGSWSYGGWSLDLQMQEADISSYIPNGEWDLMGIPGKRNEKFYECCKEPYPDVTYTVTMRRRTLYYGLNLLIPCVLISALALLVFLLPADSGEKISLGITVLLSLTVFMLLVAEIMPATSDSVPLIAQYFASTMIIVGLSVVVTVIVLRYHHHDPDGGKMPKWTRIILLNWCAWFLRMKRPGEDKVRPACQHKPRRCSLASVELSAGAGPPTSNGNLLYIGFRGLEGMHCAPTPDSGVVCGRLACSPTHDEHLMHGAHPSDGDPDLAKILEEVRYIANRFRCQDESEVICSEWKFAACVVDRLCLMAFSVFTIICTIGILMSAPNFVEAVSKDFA

As for `CCN1C[C@]2(COC(=O)c3ccccc3N3C(=O)C[C@H](C)C3=O)CC[C@H](OC)[C@@]34[C@@H]5C[C@H]6[C@H](OC)[C@@H]5[C@](O)(C[C@@H]6OC)[C@@](O)([C@@H](OC)[C@H]23)[C@@H]14` [methyllycaconitine, reference compound], the “effect of α7 selective antagonist on agonist plus modulator calcium response” value at α7 nAChRs [1] (IMR-32 cells) was “abolishes response”.

`Cc1cn(-c2ccc3c(c2)OC(F)(F)O3)/c(=N/C(=O)N(C)C)s1` [Example 9, N′-[(2Z)-3-(2,2-difluoro-1,3-benzodioxol-5-yl)-5-methyl-1,3-thiazol-2(3H)-ylidene]-N,N-dimethylurea]: the “calcium fluorescence response, modulator co-applied with agonist” value at α7 nAChRs [1] (IMR-32 cells, Example 9 10 μM with agonist 4-(5-phenyl-[1,3,4]oxadiazol-2-yl)-1,4-diaza-bicyclo[3.2.2]nonane, FIG. 1) was “evoked calcium fluorescence response”. For the same compound, the “calcium response, modulator alone” value at α7 nAChRs [1] (IMR-32 cells, absence of α7 nAChR agonist, FIG. 2) is on record as “did not trigger calcium responses”. At α7 nAChRs [1] (IMR-32 neuroblastoma cells, in presence of agonist 4-(5-phenyl-[1,3,4]oxadiazol-2-yl)-1,4-diaza-bicyclo[3.2.2]nonane, FIG. 2, read-out: EC50 value of the modulator (calcium fluorescence response)), the EC50 (usually the concentration giving half of the maximal effect) stood at 3 µM. For the same compound, the “ERK phosphorylation, concentration-response” value on α7 nAChRs [2] is listed as “evoke concentration-dependent increases in ERK phosphorylation”.

As to `c1ccc(-c2nnc(N3CCN4CCC3CC4)o2)cc1` [4-(5-Phenyl-[1,3,4]oxadiazol-2-yl)-1,4-diaza-bicyclo[3.2.2]nonane, reference compound], the “calcium response, agonist alone” value on α7 nAChRs [1] (IMR-32 cells, absence of allosteric modulator, FIG. 3) was “did not trigger calcium responses”.
